From publication PMC10406941 (Scientific Reports, 2023)
Read-outs that look alike come from different tables or passages of the source.

Legend:
SARS-CoV-2 [1] = assay: Anti-SARS-CoV-2 activity, detection of viral genomes by RT-qPCR on infected cells; format: cell-based; settings: for anti-SARS-CoV-2 activity in words: Vero E6 cells; for fold reduction in anti-SARS-CoV-2 activity: relative to PB28, Vero E6 cells
S2R [2] = target: T1, S2R (Rattus norvegicus, UniProt Q5U3Y7); settings: [3H]-DTG, rat liver, masking with (+)-Pentazocine, cited from earlier work
T1 construct: [^3H]-DTG on rat liver masking with ( +)-Pentazocine according to the generally accepted protocol; from tissue; host or cells: rat liver
T1 sequence (Q5U3Y7 1-176): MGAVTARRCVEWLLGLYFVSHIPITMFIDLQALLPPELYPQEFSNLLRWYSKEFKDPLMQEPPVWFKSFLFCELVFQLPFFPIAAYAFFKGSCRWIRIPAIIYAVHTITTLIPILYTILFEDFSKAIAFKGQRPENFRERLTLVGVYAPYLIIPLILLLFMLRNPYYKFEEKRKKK

S1R [3] = target: T2, S1R (Cavia porcellus, UniProt Q60492); settings: cited from earlier work
T2 construct: [^3H]-( +)-Pentazocine on guinea pig brain according to the generally accepted protocol; from tissue; host or cells: guinea pig brain

S2R [4] = target: T1, S2R; assay: S2R radioligand binding assay, [3H]-DTG on rat liver masking with (+)-Pentazocine; settings: Table 1, compound 6 (no reference cited)
S1R [5] = target: T2, S1R; assay: S1R radioligand binding assay, [3H]-(+)-Pentazocine on guinea pig brain; settings: Table 1, compound 6 (no reference cited)
SARS-CoV-2 [6] = settings: read-out: IC90 anti-SARS-CoV-2 activity in vitro; cited from earlier work
[7] = Table 1, RT-qPCR of viral genomes, Vero E6 cells infected with SARS-CoV-2, one representative experiment of at least three
[8] = Table 1, mean of three experiments in duplicate
[9] = Table 1, [3H]-(+)-Pentazocine, guinea pig brain, mean of three experiments in duplicate, read-out: Ki nM S1R
[10] = Table 1, RT-qPCR of viral genomes, Vero E6 cells infected with SARS-CoV-2, one representative experiment of at least three, read-out: IC50 (μM) SARS-CoV-2
[11] = Table 3, RT-qPCR of viral genomes, Vero E6 cells infected with SARS-CoV-2, read-out: IC50 (μM) SARS-CoV-2
[12] = Table 3, [3H]-(+)-Pentazocine, guinea pig brain, read-out: Ki nM S1R
[13] = Table 4, RT-qPCR of viral genomes, Vero E6 cells infected with SARS-CoV-2
[14] = Table 4, [3H]-(+)-Pentazocine, guinea pig brain, read-out: Ki Nm S1R

T2 sequence (Q60492 whole entry): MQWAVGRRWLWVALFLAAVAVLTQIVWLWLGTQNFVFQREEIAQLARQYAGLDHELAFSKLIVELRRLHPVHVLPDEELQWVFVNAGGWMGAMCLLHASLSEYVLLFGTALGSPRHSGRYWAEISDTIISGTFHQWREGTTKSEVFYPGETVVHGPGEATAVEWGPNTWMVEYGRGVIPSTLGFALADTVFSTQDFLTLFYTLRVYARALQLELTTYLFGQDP

| Compound | anti-SARS-CoV-2 activity in words (SARS-CoV-2 [1]) | Ki (S2R [2]; [8]) | Ki (S1R [3]; [9]) | IC50 (SARS-CoV-2 [1]; [10]) | further results |
| --- | --- | --- | --- | --- | --- |
| COc1cccc2c1CCCC2N1CCN(C2CCCCC2)CC1 (racemic) [Compound 1] | loss of activity | 7.9 nM | 0.4 nM | – | IC50 (μM) SARS-CoV-2 (SARS-CoV-2 [1]; [7]): NOT ACTIVE |
| COc1cccc2c1CCCC2CN1CCN(C2CCCCC2)CC1 (racemic) [Compound 2] | – | 16.4 nM | 0.31 nM | 5.9 µM | fold reduction in anti-SARS-CoV-2 activity (SARS-CoV-2 [1]): 20 fold |
| COc1cccc2c1CCCC2CCN1CCN(C2CCCCC2)CC1 (racemic) [Compound 3] | – | 21.1 nM | 1.57 nM | 12.6 µM | fold reduction in anti-SARS-CoV-2 activity (SARS-CoV-2 [1]): 40 fold |
| COc1cccc2c1CCCC2CCCCN1CCN(C2CCCCC2)CC1 (racemic) [Compound 4] | – | 3.58 nM | – | 0.32 µM | – |
| COc1cccc2c1CCCC2CCCCCN1CCN(C2CCCCC2)CC1 (racemic) [Compound 5] | – | 0.35 nM | 1.52 nM | 0.19 µM | – |
| COc1cccc2c1CCCC2CCCCCCN1CCN(C2CCCCC2)CC1 (racemic) [Compound 6] | – | – | – | 1.32 µM | Ki (S2R [4]): 103 nM; fold reduction in anti-SARS-CoV-2 activity (SARS-CoV-2 [1]): threefold less potent; Ki (S1R [5]): 3.07 nM |
| c1ccc2c(c1)CCCC2CCCN1CCN(C2CCCCC2)CC1 (racemic) [Compound 7] | – | 0.68 nM | 0.61 nM | 0.438 µM | – |
| c1ccc2c(c1)CCCC2CCCCN1CCN(C2CCCCC2)CC1 (racemic) [Compound 8] | – | 14.6 nM | – | 0.317 µM | – |
| c1ccc2c(c1)CCCC2CCCCCN1CCN(C2CCCCC2)CC1 (racemic) [Compound 9] | – | 7.85 nM | 1.45 nM | 0.19 µM | – |
| COc1ccc2c(c1)CCCC2CCCN1CCN(C2CCCCC2)CC1 (racemic) [Compound 10] | – | 5.42 nM | 0.36 nM | 0.47 µM | Ki (S1R [3]; as quoted in the text of the docking section, read-out: Ki (S1R)): 0.38 nM |
| Oc1cccc2c1CCCC2CCCN1CCN(C2CCCCC2)CC1 (racemic) [Compound 15] | complete loss of antiviral activity | 2.66 nM | – | – | IC50 (μM) SARS-CoV-2 (SARS-CoV-2 [1]; [7]): NOT ACTIVE |
| Oc1ccc2c(c1)CCCC2CCCN1CCN(C2CCCCC2)CC1 (racemic) [Compound 16] | complete loss of antiviral activity | 1.12 nM | 0.69 nM | – | IC50 (μM) SARS-CoV-2 (SARS-CoV-2 [1]; [7]): NOT ACTIVE |
| COc1cccc2c1CCCC2CCCN1CCN(C)CC1 (racemic) [Compound 23] | – | – | – | – | IC50 (SARS-CoV-2 [1]; [11]): 5.78 µM; fold reduction in anti-SARS-CoV-2 activity (SARS-CoV-2 [1]): 20 fold; Ki (S2R [2]; Table 3): 663 nM; Ki (S1R [3]; [12]): 17.8 nM |
| CCCN1CCN(CCCC2CCCc3c(OC)cccc32)CC1 (racemic) [Compound 24] | – | – | – | – | IC50 (SARS-CoV-2 [1]; [11]): 2.26 µM; fold reduction in anti-SARS-CoV-2 activity (SARS-CoV-2 [1]): 8 fold; Ki (S2R [2]; Table 3): 42.5 nM; Ki (S1R [3]; [12]): 9.6 nM |
| CCC(CC)N1CCN(CCCC2CCCc3c(OC)cccc32)CC1 (racemic) [Compound 25] | no anti-SARS-CoV-2 activity | – | – | – | IC50 (μM) SARS-CoV-2 (SARS-CoV-2 [1]; Table 3, RT-qPCR of viral genomes, Vero E6 cells infected with SARS-CoV-2): NOT ACTIVE; Ki (S2R [2]; Table 3): 12.7 nM; Ki (S1R [3]; [12]): 12 nM |
| COc1cccc2c1CCC[C@H]2CCCN1CCN(C2CCCCC2)CC1 [( +)-S-PB28] | – | 1.18 nM | – | 0.455 µM | – |
| COc1cccc2c1CCC[C@@H]2CCCN1CCN(C2CCCCC2)CC1 [(-)-R-PB28] | – | 0.49 nM | – | 0.309 µM | – |
| c1ccc2c(CCCN3CCN(C4CCCCC4)CC3)cccc2c1 [Compound 11] | – | 0.69 nM | 2.16 nM | 0.94 µM | – |
| c1ccc2c(CCCCCN3CCN(C4CCCCC4)CC3)cccc2c1 [Compound 12] | – | 0.57 nM | 2.4 nM | 0.52 µM | – |
| COc1cccc2c(CCCN3CCN(C4CCCCC4)CC3)cccc12 [Compound 13] | – | 9.24 nM | – | 0.306 µM | – |
| COc1ccc2c(CCCN3CCN(C4CCCCC4)CC3)cccc2c1 [Compound 14] | complete loss of activity | 9.02 nM | 3.16 nM | – | IC50 (μM) SARS-CoV-2 (SARS-CoV-2 [1]; [7]): NOT ACTIVE |
| Oc1ccc2c(CCCN3CCN(C4CCCCC4)CC3)cccc2c1 [Compound 17] | complete loss of antiviral activity | 26.4 nM | 6.78 nM | – | IC50 (μM) SARS-CoV-2 (SARS-CoV-2 [1]; [7]): NOT ACTIVE |
| Oc1ccc2cccc(CCCN3CCN(C4CCCCC4)CC3)c2c1 [Compound 18] | complete loss of antiviral activity | 11.8 nM | 5.48 nM | – | IC50 (μM) SARS-CoV-2 (SARS-CoV-2 [1]; [7]): NOT ACTIVE |
| COc1cccc2c1CCCC2CCCN1CCN(C2CCCCC2)CC1 (centres unmarked) [PB28, 1-Cyclohexyl-4-[3-(5-methoxy-1,2,3,4-tetrahydronaphthalen-1-yl)propyl]piperazine, reference compound] | – | – | – | – | IC50 (SARS-CoV-2 [1]; Severe acute respiratory syndrome coronavirus 2, Vero C1008, read-out: IC50 (μM) SARS-CoV-2): 0.299 µM; IC90 (SARS-CoV-2 [6]): 280 nM |
| COc1ccc2c(c1)CCCC2CCCCN1CCC(C)CC1 (centres unmarked) [PB190, reference compound] | did not demonstrate any antiviral effect | – | – | – | IC50 (μM) SARS-CoV-2 (SARS-CoV-2 [1]; [13]): NOT ACTIVE; Ki (S2R [2]; Table 4): 36.3 nM; Ki (S1R [3]; [14]): 0.42 nM |
| COc1ccc2c(CCCCN3CCC(C)CC3)cccc2c1 [PB212, reference compound] | did not demonstrate any antiviral effect | – | – | – | IC50 (μM) SARS-CoV-2 (SARS-CoV-2 [1]; [13]): NOT ACTIVE; Ki (S2R [2]; Table 4): 17.9 nM; Ki (S1R [3]; [14]): 0.03 nM |
